Assay results reported in patent publication US20030096958A1, “Human NHE2” (Pfizer Inc., priority 2001, published 2003).
Where two headings read alike, the source gives them in different places.

Tests used:
[1] = biological target: T1, human NHE2-SF (Homo sapiens, UniProt Q9UBY0); assay: FLIPR assay of Na+/H+ exchange (BCECF fluorescence recovery) in human NHE2-SF transfected PS120 cells; type: cell-based
T1 construct: NotI/BgIII fragments including each of the entire coding regions were subcloned into pcDNA3.1(−) vectors; expressed in transfected cells; two lines tested
T1 sequence (Q9UBY0 116-812): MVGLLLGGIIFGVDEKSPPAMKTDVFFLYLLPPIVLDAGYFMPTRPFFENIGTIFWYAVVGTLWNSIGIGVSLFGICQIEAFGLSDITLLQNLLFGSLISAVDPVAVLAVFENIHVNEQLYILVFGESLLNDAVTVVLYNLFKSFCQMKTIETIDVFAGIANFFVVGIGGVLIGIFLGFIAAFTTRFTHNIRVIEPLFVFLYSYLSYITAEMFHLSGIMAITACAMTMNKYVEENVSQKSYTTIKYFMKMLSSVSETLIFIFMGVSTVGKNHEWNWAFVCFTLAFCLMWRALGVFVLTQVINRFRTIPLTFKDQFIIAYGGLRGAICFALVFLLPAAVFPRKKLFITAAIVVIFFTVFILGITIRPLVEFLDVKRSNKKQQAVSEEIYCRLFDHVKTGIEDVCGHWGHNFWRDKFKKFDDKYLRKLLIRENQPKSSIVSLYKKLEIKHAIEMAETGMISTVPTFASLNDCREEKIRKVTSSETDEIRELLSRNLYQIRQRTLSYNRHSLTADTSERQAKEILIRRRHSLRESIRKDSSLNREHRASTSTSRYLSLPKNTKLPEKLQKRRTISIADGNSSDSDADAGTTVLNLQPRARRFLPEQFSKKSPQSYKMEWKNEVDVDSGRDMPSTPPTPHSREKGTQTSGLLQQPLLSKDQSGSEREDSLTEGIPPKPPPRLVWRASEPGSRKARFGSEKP
Method: (§1) Human NHE2-LF and human NHE2-SF transfected PS120 cells were grown to confluence in collagen coated Fluorescent Laser Imaging Plate Reader (FLIPR) plates. To remove growth medium, the cells were washed with a 10 mM Hepes buffer, pH 7.4. A pH sensitive fluorescent dye, BCECF, AM (5 μM) (Molecular Probes, Eugene, Oreg.), was added to each well and the plates were incubated in a 37° C. humidified 5% CO2 incubator for approximately 20 minutes.
(§2) The cells were then washed with 30 mM NH4Cl buffer, pH 7.5, to remove excess dye. Plates were incubated with this buffer for approximately 45 minutes in a 37° C. humidified incubator.
(§3) 5-(N,N-Hexamethylene)-amiloride ((hexa)-amiloride), amiloride, or a vehicle, was then added to each well and allowed to incubate for a minimum of 5 minutes prior to the initiation of intracellular acidification. The NH4Cl buffer was removed and the plates were placed on the FLIPR to establish a baseline fluorescence. A 10 mM hepes buffer, pH 7.4, containing the appropriate concentration of test compound or vehicle was added to each well of the plate. (This process initiates intracellular acidification and the quenching of BCECF-related fluorescence. The resultant activation of the Na^+/H^+ exchanger and the decrease in intracellular H^+ ions produces in gradual increase in dye fluorescence towards baseline.) Changes in fluorescence were measured by the FLIPR over a period of 7 min. Activity of the exchanger was calculated based on the percentage of fluorescence recovery as compared to control in the presence of varying concentrations of compounds (Table 2).

[2] = biological target: T2, human NHE2-LF (Homo sapiens, UniProt Q9UBY0); assay: FLIPR assay of Na+/H+ exchange (BCECF fluorescence recovery) in human NHE2-LF transfected PS120 cells; type: cell-based; conditions: read-out: IC50 Values Determined By FLIPR, NHE2-LF
T2 construct: expressed in transfected cells
T2 sequence (Q9UBY0 1-812): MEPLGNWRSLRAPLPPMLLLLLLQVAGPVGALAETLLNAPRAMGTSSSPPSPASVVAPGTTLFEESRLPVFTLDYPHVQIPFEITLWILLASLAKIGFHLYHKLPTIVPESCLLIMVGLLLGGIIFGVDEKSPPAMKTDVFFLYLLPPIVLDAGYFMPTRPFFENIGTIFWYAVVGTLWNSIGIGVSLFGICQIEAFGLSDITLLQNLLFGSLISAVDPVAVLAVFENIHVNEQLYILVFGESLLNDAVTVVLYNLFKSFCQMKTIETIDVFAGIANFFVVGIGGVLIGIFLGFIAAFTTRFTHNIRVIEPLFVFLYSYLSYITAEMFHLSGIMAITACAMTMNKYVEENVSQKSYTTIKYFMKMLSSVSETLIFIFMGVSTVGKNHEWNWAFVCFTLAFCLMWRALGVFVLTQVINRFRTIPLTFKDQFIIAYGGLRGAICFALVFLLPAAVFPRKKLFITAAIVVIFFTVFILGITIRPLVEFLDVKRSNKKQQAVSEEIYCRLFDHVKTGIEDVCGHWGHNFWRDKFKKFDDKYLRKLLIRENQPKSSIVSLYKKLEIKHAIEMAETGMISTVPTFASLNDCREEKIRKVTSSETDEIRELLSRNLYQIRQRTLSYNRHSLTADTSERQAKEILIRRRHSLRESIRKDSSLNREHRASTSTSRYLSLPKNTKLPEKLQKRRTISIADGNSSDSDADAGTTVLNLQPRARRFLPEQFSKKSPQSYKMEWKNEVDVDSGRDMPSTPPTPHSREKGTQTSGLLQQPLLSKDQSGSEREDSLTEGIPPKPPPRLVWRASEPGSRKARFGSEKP
Method: as §1, §2
as §3, with “A 10 mM hepes buffer, pH 7.4, containing the appropriate concentration of test compound or vehicle was added to each well of the plate.” left out, “Activity of the exchanger was calculated based on the percentage of fluorescence recovery as compared to control in the presence of varying concentrations of compounds (Table 2).” left out

[3] = line #2, read-out: IC50 Values Determined By FLIPR, NHE2-SF line #2
[4] = line #, read-out: IC50 Values Determined By FLIPR, NHE2-SF line #

Row | Structure (SMILES) | IC50 [1, 3] [nM] | IC50 [1, 4] [nM] | IC50 [2] [nM]
1 | N=C(N)NC(=O)c1nc(Cl)c(N)nc1N [Amiloride, amiloride] | 1370 | 1700 | 27000
2 | NC(N)=NC(=O)c1nc(Cl)c(N2CCCCCC2)nc1N [(hexa)-Amiloride, 5-(N,N-Hexamethylene)-amiloride] | 45 | 23 | 7480
